Measured values taken from patent US9475815B2, “Substituted benzothienyl-pyrrolotriazines and uses thereof” (Bayer Intellectual Property GmbH, priority 2012, dated 2016).
Structures can show the parent of a compound that is named as a salt. Where two headings read alike, the source gives them in different places.

What was measured:
[1] = target: human mTOR (Homo sapiens (Human), UniProt P42345); experiment: mTOR kinase assay (TR-FRET, for comparative purposes); format: biochemical; conditions: for inhibition at 1 µM: read-out: mTOR % inhibition @ 1 μM, 1 μM test compound, 40 μM ATP, mean values
Sequence of human mTOR (P42345 1360-2549): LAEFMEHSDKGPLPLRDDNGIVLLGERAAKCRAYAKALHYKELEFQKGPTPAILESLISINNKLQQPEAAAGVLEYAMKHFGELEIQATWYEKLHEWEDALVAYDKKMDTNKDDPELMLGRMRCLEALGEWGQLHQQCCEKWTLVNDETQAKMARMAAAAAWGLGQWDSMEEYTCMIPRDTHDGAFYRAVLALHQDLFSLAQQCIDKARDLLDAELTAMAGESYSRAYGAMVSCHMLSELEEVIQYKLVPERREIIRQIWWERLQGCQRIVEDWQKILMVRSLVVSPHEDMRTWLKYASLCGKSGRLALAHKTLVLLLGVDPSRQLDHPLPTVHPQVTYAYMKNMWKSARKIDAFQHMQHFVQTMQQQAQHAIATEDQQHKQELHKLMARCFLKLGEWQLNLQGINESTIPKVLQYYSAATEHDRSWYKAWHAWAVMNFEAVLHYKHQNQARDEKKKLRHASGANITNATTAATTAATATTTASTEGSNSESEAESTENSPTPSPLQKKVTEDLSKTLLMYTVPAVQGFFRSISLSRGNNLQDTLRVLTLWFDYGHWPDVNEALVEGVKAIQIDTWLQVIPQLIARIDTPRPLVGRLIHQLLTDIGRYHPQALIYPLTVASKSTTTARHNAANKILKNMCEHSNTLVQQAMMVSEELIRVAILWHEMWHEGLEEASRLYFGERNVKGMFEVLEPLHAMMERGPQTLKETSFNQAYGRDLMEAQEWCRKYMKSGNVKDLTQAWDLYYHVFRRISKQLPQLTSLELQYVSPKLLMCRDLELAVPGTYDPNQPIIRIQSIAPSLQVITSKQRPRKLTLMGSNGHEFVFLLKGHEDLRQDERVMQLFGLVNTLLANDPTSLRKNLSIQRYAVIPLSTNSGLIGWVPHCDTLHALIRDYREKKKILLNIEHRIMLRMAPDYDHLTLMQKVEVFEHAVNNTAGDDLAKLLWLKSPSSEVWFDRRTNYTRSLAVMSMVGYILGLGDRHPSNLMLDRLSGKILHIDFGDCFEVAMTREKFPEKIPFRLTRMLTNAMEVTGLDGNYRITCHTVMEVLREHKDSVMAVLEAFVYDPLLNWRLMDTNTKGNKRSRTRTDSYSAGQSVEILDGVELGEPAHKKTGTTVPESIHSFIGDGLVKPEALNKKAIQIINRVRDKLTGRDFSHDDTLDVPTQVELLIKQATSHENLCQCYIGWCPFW
Procedure: mTOR inhibitory activity of the compounds of the present invention was quantified employing the TR-FRET based mTOR assay as described in the following paragraphs:
Test compounds were dissolved in DMSO to generate 10 mM stock solutions. These solutions were first 10-fold diluted by 100% DMSO to get 1 mM solutions in 100% DMSO, then 100-fold diluted by 50% DMSO to get 10 μM solutions in 50% DMSO.
(final concentration in the 10 μl assay volume=1 nM) in FRET buffer.
For this, the fluorescence emissions at 495 nm and 520 nm after excitation at 340 nm was measured in an Envision 2104 multilabel reader (Perkin-Elmer).

[2] = target: human FGFR-1 (Homo sapiens, UniProt P11362); experiment: FGFR-1 high ATP kinase assay (TR-FRET)
Sequence of human FGFR-1 (P11362 22-822 limits assumed): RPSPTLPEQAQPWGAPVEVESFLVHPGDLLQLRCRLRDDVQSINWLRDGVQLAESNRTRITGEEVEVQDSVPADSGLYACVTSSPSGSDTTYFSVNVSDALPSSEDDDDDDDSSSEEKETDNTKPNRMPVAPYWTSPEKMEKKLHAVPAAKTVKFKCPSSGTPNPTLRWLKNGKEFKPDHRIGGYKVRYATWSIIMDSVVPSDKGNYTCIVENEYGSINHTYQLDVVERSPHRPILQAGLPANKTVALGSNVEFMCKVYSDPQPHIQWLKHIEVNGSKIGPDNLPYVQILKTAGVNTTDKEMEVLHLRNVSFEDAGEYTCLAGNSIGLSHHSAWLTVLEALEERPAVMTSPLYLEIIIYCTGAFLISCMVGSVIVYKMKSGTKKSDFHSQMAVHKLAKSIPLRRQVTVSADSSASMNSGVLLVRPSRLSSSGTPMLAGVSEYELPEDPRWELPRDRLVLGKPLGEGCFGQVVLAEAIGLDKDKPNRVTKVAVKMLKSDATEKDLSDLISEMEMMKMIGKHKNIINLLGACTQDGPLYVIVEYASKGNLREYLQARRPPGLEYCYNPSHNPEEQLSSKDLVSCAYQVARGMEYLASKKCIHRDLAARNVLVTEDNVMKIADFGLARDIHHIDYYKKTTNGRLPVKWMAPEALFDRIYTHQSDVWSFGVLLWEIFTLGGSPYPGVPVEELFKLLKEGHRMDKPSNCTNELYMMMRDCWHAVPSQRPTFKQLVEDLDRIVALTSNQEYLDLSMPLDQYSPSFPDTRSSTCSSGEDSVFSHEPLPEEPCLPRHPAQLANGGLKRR

[3] = tested on: Human umbilical vein endothelial cells (HUVEC); experiment: Inhibition of growth factor-mediated cell proliferation (hFGF-2); format: cell-based; conditions: 72 h exposure, hFGF-2 stimulated, from averaged pIC50 values
Procedure: Human umbilical vein endothelial cells (HUVEC) were obtained from Cellsystems (FC-0003) and grown in Vasculife VEGF complete medium (Cellsystems, LL-1020) containing 2% fetal bovine serum (FBS) at 37° C. and 5% CO2. The cells were used for proliferation assays up to passage 7.
The HUVEC cells were harvested using accutase (PAA, L11-007) and seeded in columns 2 to 12 of 96-well plates (Falcon MICROTEST tissue culture plate 96-well flat bottom, BD 353075, or μCLEAR-PLATE, black, 96-well, Greiner Bio-One, No. 655090) at a cell density of 2500 cells/well in 100 μl Vasculife VEGF complete medium with column 1 remaining empty as blank. Cells were allowed to incubate at 37° C. and 5% CO2 for at least 6 h. Then, the cells were washed once with PBS and starved overnight in Vasculife basal medium (Cellsystems, LM-0002) containing heparin, ascorbate and L-glutamine (components of the Vasculife Life Factors Kit, Cellsystems, LL-1020) as well as 0.2% FBS.
After about 18 h, the starving medium was discarded, and the cells were exposed for 72 h to 9 consecutive log or half-log concentrations of test compound in the range of 10 pM to 30 μM and to 5, 10 or 20 ng/ml hFGF-2 (recombinant human FGF basic, R&D Systems, 233-FB) in 100 μl starving medium. 10 mM stock solutions of test compounds in DMSO were diluted to 200× final concentration in DMSO resulting in a final DMSO concentration of 0.5% in all wells. Controls consisted of cells grown in starving medium only and of cells grown in hFGF-2 containing starving medium with 0.5% DMSO. To determine cell proliferation, 5 μl Alamar Blue solution (Biosource, DAL1100) was added to each well (1:20 dilution), and the cells were allowed to incubate for further 4 h at 37° C. and 5% CO2 before measuring fluorescence (ex. 535 nm, em. 595 nm) with a Spectrafluor Plus Tecan plate reader (XFLUOR4 version 4.20). In some experiments, an ATP Determination Kit (BIAFFIN GmbH, LBR-T100) was used according to the manufacturer's instructions. In each experiment, samples were assayed in triplicate, and the standard deviations were determined GraphPad Prism 5 software was used to analyze the data and to obtain IC50 values. All test compounds were assayed 2 to 10 times in independent experiments and similar results were obtained.

[4] = target: human FGFR-3 (Homo sapiens (Human), UniProt P22607); experiment: FGFR-3 kinase assay (TR-FRET); format: biochemical; conditions: 10 μM ATP, 15 min pre-incubation with enzyme
Sequence of human FGFR-3 (P22607 397-806): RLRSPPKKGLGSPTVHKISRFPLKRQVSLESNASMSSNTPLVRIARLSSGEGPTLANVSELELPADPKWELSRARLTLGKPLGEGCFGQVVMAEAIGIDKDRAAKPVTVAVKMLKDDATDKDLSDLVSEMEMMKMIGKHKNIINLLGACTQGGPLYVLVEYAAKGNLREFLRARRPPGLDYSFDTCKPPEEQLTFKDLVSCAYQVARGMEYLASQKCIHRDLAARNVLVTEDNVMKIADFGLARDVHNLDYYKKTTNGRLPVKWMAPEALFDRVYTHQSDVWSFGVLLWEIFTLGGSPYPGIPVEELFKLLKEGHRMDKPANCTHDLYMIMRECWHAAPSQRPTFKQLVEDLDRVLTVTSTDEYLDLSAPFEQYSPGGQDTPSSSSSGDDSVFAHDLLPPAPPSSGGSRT

Structure (SMILES)	inhibition at 1 µM [1] [%]	IC50 [2] [nM]	IC50 ([3]; Homo sapiens, HUVEC, 72 h) [nM]	IC50 [4] [nM]	IC50 ([3]; trihydrochloride hydrate) [nM]	mTOR % inhibition @ 1 μM ([1]; 1 μM test compound, 40 μM ATP, mean values) [%]	IC50 ([2]; read-out: FGFR-1 (high ATP) IC50, 2 mM ATP, 15 min pre-incubation with enzyme) [nM]	IC50 [3] [nM]
COc1cc(C)cc2cc(-c3cc(CN4CCNC(C(N)=O)C4)n4ncnc(N)c34)sc12 (racemic) [Example 7, rac-4-{[4-Amino-5-(7-methoxy-5-methyl-1-benzothiophen-2-yl)pyrrolo[2,1-f][1,2,4]triazin-7-yl]-methyl}piperazine-2-carboxamide trihydrochloride]	43.7	7.8	44					
COc1cc(C)cc2cc(-c3cc(C(=O)NC4CCNC4=O)n4ncnc(N)c34)sc12 (racemic) [Example 98, rac-4-Amino-5-(7-methoxy-5-methyl-1-benzothiophen-2-yl)-N-(2-oxopyrrolidin-3-yl)pyrrolo-[2,1-f][1,2,4]triazine-7-carboxamide hydrochloride]	24.6	9	48	13.1				
COc1cc(C)cc2cc(-c3cc(CN4CCNCC4)n4ncnc(N)c34)sc12 [Example 1, 5-(7-Methoxy-5-methyl-1-benzothiophen-2-yl)-7-(piperazin-1-ylmethyl)pyrrolo[2,1-f][1,2,4]-triazin-4-amine trihydrochloride hydrate]	17.6	9.9			36			
COc1cc(C)cc2cc(-c3cc(CN4CCNCC4)n4ncnc(N)c34)sc12 [Example 2, 5-(7-Methoxy-5-methyl-1-benzothiophen-2-yl)-7-(piperazin-1-ylmethyl)pyrrolo[2,1-f][1,2,4]-triazin-4-amine]						22.8	20.1	127
COc1cc(C)cc2cc(-c3cc(CN4CC[C@](C)(N)C4)n4ncnc(N)c34)sc12 [Example 5, 7-{[(3S)-3-Amino-3-methylpyrrolidin-1-yl]methyl}-5-(7-methoxy-5-methyl-1-benzothiophen-2-yl)pyrrolo[2,1-f][1,2,4]triazin-4-amine trihydrochloride]	18.8	1.1	48	7.4				
COc1cc(C)cc2cc(-c3cc(CN[C@@H]4CCNC4=O)n4ncnc(N)c34)sc12 [Example 6, (3R)-3-({[4-Amino-5-(7-methoxy-5-methyl-1-benzothiophen-2-yl)pyrrolo[2,1-f][1,2,4]triazin-7-yl]methyl}amino)pyrrolidin-2-one dihydrochloride]	33.5	20.1	22	21.7				
COc1cc(C)cc2cc(-c3cc(CN4CCNC(=O)C4)n4ncnc(N)c34)sc12 [Example 8, 4-{[4-Amino-5-(7-methoxy-5-methyl-1-benzothiophen-2-yl)pyrrolo[2,1-f][1,2,4]triazin-7-yl]-methyl}piperazin-2-one dihydrochloride]	45.9	29	370					
COc1cc(C)cc2cc(-c3cc(CN4CC[C@H](N)C4)n4ncnc(N)c34)sc12 [Example 9, 7-{[(3S)-3-Aminopyrrolidin-1-yl]methyl}-5-(7-methoxy-5-methyl-1-benzothiophen-2-yl)pyrrolo[2,1-f][1,2,4]triazin-4-amine]	24.2	4.7	145	7.4				
COc1cc(C)cc2cc(-c3cc(CN4CCOCC4)n4ncnc(N)c34)sc12 [Example 10, 5-(7-Methoxy-5-methyl-1-benzothiophen-2-yl)-7-(morpholin-4-ylmethyl)pyrrolo[2,1-f][1,2,4]-triazin-4-amine]	28.1	94.9	21	77.7				
COc1cc(C)cc2cc(-c3cc(CN[C@H]4CCNC4=O)n4ncnc(N)c34)sc12 [Example 14]	30.6	43.6	32	33.4				
COc1cc(C)cc2cc(-c3cc(CN4CC[C@H](N(C)C)C4)n4ncnc(N)c34)sc12 [Example 15]	25.2	11.1	180	23				
CCN[C@H]1CCN(Cc2cc(-c3cc4cc(C)cc(OC)c4s3)c3c(N)ncnn23)C1 [Example 16]	26.7	15.6	80	15.5				
COc1cc(C)cc2cc(-c3cc(CN4CCNC(C(=O)N(C)C)C4)n4ncnc(N)c34)sc12 (centres unmarked) [Example 17]	34.3	27.3	150	36.9				
COc1cc(C)cc2cc(-c3cc(CNCC(N)=O)n4ncnc(N)c34)sc12 [Example 18]	39.1	26.4	155	7.8				
CCN(CC)C1CCN(Cc2cc(-c3cc4cc(C)cc(OC)c4s3)c3c(N)ncnn23)C1 (centres unmarked) [Example 19]	25.9	14.7	277	27.2				
COc1cc(C)cc2cc(-c3cc(CN4CCNC(=O)CC4)n4ncnc(N)c34)sc12 [Example 20]	35.6	54.7	110	24.8				
COc1cc(C)cc2cc(-c3cc(CN4CCC(NCC(C)O)C4)n4ncnc(N)c34)sc12 (centres unmarked) [Example 22]	14	9.3	105	41.8				
CNC1CCN(Cc2cc(-c3cc4cc(C)cc(OC)c4s3)c3c(N)ncnn23)C1 (centres unmarked) [Example 41]	25.9	7.3	49					
COc1cc(C)cc2cc(-c3cc(CN4CCC(N(C)C)C4)n4ncnc(N)c34)sc12 (centres unmarked) [Example 42]	36.3	13.4	130					
COc1cc(C)cc2cc(-c3cc(CN4CCNC(C)(C)C4)n4ncnc(N)c34)sc12 [Example 45]	25.9	18.1	217					
COc1cc(C)cc2cc(-c3cc(CN4CCC[C@H](N)C4)n4ncnc(N)c34)sc12 [Example 56]	32.1	17.5	169	22.6				
COc1cc(C)cc2cc(-c3cc(CN4CCCC(N(C)C)C4)n4ncnc(N)c34)sc12 (centres unmarked) [Example 86]	33	4.6	37	9.6				
COc1cc(C)cc2cc(-c3cc(CN4CCN(C(=O)CO)CC4)n4ncnc(N)c34)sc12 [Example 96, 1-(4-{[4-Amino-5-(7-methoxy-5-methyl-1-benzothiophen-2-yl)pyrrolo[2,1-f][1,2,4]triazin-7-yl]-methyl}piperazin-1-yl)-2-hydroxyethanone]	37.9	12.6	72	11.9				
COc1cc(C)cc2cc(-c3cc(C(=O)N4CCNCC4)n4ncnc(N)c34)sc12 [Example 99, [4-Amino-5-(7-methoxy-5-methyl-1-benzothiophen-2-yl)pyrrolo[2,1-f][1,2,4]triazin-7-yl]-(piperazin-1-yl)methanone dihydrochloride]	9.9	90.4	270	66.6				
COc1cc(C)cc2cc(-c3cc(Cn4ccnc4C#N)n4ncnc(N)c34)sc12 [Example 122]	35.7	71.8		65.6				
COc1cc(C)cc2cc(-c3cc(Cn4cc(C)nc4C)n4ncnc(N)c34)sc12 [Example 123]	47.8	28.3		58				
